How the values were obtained:
Cannabinoid receptor 2 [1] = target: T1, Cannabinoid receptor 2 (Homo sapiens, UniProt P34972); test: Binding affinity to human CB2 receptor
Cannabinoid receptor 1 [2] = target: T2, Cannabinoid receptor 1 (Rattus norvegicus, UniProt P20272); test: Binding affinity to rat CB1 receptor
[3] = Selectivity ratio of Ki for rat CB1 receptor to Ki for human CB2 receptor
Cannabinoid receptor 2 [4] = target: T1, Cannabinoid receptor 2; test: Agonist activity at human CB2 receptor assessed as inhibition of forskolin-induced cAMP production preincubated for 15 mins followed by forskolin challenge measured after 30 mins by HTRF assay; type: functional
Cannabinoid receptor 1 [5] = target: T3, Cannabinoid receptor 1 (Homo sapiens, UniProt P21554); test: Agonist activity at human CB1 receptor assessed as inhibition of forskolin-induced cAMP production preincubated for 15 mins followed by forskolin challenge measured after 30 mins by HTRF assay; type: functional
Cannabinoid receptor 2 [6] = target: T1, Cannabinoid receptor 2; test: Agonist activity at human CB2 receptor transfected in CHO-K1 cells assessed as cAMP change; type: functional, cell-based
Cannabinoid receptor 2 [7] = target: T1, Cannabinoid receptor 2; test: Agonist activity at human CB2 receptor expressed in Sf9 membranes assessed as effect on [35S]-GTPgammaS binding after 30 mins by scintillation counting; type: functional, cell membranes
Cannabinoid receptor 2 [8] = target: T1, Cannabinoid receptor 2; test: Binding affinity to CB2 receptor (unknown origin)
Cannabinoid receptor 1 [9] = target: T3, Cannabinoid receptor 1; test: Binding affinity to CB1 receptor (unknown origin)
Cannabinoid receptor 1 [10] = target: T2, Cannabinoid receptor 1; test: Displacement of [3H]-CP55940 from CB1 receptor of rat cerebellar membranes by liquid scintillation counting in presence of serine protease inhibitor PMSF; design: species or system Cerebellum, Membrane
Cannabinoid receptor 2 [11] = target: T4, Cannabinoid receptor 2 (Rattus norvegicus, UniProt Q9QZN9); test: Displacement of [3H]-CP55940 from CB2 receptor of rat spleen membranes by liquid scintillation counting in presence of serine protease inhibitor PMSF; type: tissue-based, Membrane
T4 sequence (Q9QZN9 whole entry): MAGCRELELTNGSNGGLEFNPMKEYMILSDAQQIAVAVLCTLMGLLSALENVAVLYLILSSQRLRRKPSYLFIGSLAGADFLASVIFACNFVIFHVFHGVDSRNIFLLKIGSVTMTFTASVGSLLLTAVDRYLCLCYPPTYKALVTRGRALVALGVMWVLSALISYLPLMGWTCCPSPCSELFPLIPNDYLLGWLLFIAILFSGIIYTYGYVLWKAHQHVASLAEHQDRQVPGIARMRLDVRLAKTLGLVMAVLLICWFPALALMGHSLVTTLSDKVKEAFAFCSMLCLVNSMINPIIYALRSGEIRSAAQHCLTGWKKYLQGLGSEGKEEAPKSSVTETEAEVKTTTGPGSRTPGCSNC

Rattus norvegicus = species on record: Rattus norvegicus; test: Selectivity ratio of Ki for CB2 receptor of rat spleen membranes to Ki for CB1 receptor of rat cerebellar membranes; type: tissue-based
Cannabinoid receptor 1 [12] = target: T3, Cannabinoid receptor 1; test: Agonist activity at human CB1 receptor
Cannabinoid receptor 2 [13] = target: T1, Cannabinoid receptor 2; test: Agonist activity at human CB2 receptor
Cannabinoid receptor 1 [14] = target: T3, Cannabinoid receptor 1; test: Agonist activity at human CB1 receptor expressed in human SK-N-MC cells at 1 uM by CRE-beta galactosidase reporter gene assay; type: functional, cell-based
Cannabinoid receptor 2 [15] = target: T1, Cannabinoid receptor 2; test: Agonist activity at human CB2 receptor expressed in CHO-K1 cells assessed as inhibition of forskolin-induced cAMP accumulation by TR-FRET assay; type: functional, cell-based
Cannabinoid receptor 1 [16] = target: T3, Cannabinoid receptor 1; test: Agonist activity at human CB1 receptor expressed in CHO-K1 cells assessed as inhibition of forskolin-induced cAMP accumulation by TR-FRET assay; type: functional, cell-based
Cannabinoid receptor 1 [17] = target: T3, Cannabinoid receptor 1; test: Binding affinity to human CB1 receptor
[18] = Cmax in Sprague-Dawley rat at 10 mg/kg, po by UV-HPLC analysis; type: ADME, organism-based; design: dose 10 mg/kg, route oral; conditions: in vivo
[19] = AUC (0 to infinity) in Sprague-Dawley rat at 10 mg/kg, po by UV-HPLC analysis; type: ADME, organism-based; design: time infinity, dose 10 mg/kg, route oral; conditions: plasma
[20] = Half life in Sprague-Dawley rat at 10 mg/kg, po by UV-HPLC analysis; type: ADME, organism-based; design: dose 10 mg/kg, route oral; conditions: in vivo
Homo sapiens = species on record: Homo sapiens; test: Selectivity ratio of Ki for human CB1 receptor to Ki for human CB2 receptor
Cannabinoid receptor 2 [21] = target: T1, Cannabinoid receptor 2; test: Agonist activity at human CB2 receptor assessed as inhibition of forskolin-induced cAMP production preincubated for 15 mins followed by forskolin challenge measured after 30 mins by HTRF assay relative to control; type: functional

T3 sequence (P21554 whole entry): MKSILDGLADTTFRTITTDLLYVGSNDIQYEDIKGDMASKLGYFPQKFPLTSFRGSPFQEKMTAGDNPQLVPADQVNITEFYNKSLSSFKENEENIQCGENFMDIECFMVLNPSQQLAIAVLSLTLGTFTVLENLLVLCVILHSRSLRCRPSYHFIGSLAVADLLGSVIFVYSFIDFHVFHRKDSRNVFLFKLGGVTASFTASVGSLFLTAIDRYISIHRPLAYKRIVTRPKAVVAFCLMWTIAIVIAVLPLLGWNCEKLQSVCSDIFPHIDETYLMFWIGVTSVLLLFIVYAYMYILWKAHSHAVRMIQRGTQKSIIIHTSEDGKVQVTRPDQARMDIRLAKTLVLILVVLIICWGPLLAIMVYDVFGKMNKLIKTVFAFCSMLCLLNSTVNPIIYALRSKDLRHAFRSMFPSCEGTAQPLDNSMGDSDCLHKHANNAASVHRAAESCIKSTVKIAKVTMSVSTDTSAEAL
T1 sequence (P34972 whole entry): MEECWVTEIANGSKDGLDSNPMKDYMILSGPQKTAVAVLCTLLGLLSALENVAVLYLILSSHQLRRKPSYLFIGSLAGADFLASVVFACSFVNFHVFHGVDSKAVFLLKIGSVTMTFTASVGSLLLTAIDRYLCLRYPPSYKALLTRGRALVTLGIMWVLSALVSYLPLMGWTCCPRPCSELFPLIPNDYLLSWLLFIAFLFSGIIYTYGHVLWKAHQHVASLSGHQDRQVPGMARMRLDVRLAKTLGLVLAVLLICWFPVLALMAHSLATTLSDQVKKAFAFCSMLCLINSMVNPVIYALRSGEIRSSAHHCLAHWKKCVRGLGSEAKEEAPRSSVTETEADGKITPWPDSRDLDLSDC
T2 sequence (P20272 whole entry): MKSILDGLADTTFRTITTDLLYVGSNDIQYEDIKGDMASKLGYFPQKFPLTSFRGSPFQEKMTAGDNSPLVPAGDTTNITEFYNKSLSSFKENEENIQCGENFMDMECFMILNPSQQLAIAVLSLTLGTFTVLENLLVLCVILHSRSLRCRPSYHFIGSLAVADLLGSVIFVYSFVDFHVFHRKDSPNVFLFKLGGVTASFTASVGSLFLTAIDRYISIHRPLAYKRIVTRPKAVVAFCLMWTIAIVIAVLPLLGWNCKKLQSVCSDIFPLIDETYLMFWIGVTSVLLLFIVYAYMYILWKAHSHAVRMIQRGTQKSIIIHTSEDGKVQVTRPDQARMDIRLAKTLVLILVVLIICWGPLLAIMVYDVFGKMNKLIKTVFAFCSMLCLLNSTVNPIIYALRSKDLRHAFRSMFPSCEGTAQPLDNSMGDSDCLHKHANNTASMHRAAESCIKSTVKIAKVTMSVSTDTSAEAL

Compound CCCCCCC(C)(C)c1cc(O)c2c(c1)OC(C)(C)[C@@H]1CC=C(OO)C[C@@H]21 has a Ki (Cannabinoid receptor 2 [1]) of 0.032 nM, a Ki (Cannabinoid receptor 1 [2]) of 1.2 nM and a Ratio Ki [3] of 38.
Compound CNC(=O)[C@@H](NC(=O)c1nc(-c2ccccc2)n2c1CN(C)CCC2)C(C)(C)C has an EC50 (Cannabinoid receptor 2 [4]) of 10 nM and an EC50 (Cannabinoid receptor 1 [5]) of over 10000 nM.
In the case of CC1CN1S(=O)(=O)c1ccc2c(c1)C1(OCCCO1)C(=O)N2CC1CC1 (stereo not drawn), the EC50 (Cannabinoid receptor 2 [6]) is reported as 2 nM.
Compound Cc1c(C(=O)c2cccc(Cl)c2Cl)c2ccsc2n1CCN1CCOCC1 has an EC50 (Cannabinoid receptor 2 [7]) of under 100 nM.
In the case of COc1cccc2c(C(=O)N[C@@H]3C(C)(C)[C@@H]4CC[C@@]3(C)C4)cn(CCN3CCOCC3)c12, the Ki (Cannabinoid receptor 2 [8]) is reported as 11 nM and the Ki (Cannabinoid receptor 1 [9]) is reported as 245 nM.
Compound CCCCC/C=C\C/C=C\C/C=C\C/C=C\CCCC(=O)NC1CC1 has a Ki (Cannabinoid receptor 1 [10]) of 2.2 nM, a Ki (Cannabinoid receptor 2 [11]) of 715 nM and a Ratio Ki (Rattus norvegicus) of 325.
Cc1sc(NC(=O)N2CCCN(C(=O)C3CCC(F)(F)CC3)CC2)nc1C(C)(C)C gave an EC50 (Cannabinoid receptor 2 [4]) of 0.7 nM.
Compound COc1ccc(C(=O)c2cc3cc(C)n(CCN4CCOCC4)c3s2)cc1 has an EC50 (Cannabinoid receptor 2 [7]) of under 100 nM.
Work on COc1ccc2c(c1)c(CCN1CCOCC1)c(C)n2C(=O)c1cccc(Cl)c1Cl yielded a Ki (Cannabinoid receptor 1 [12]) of 4800 nM and a Ki (Cannabinoid receptor 2 [13]) of 3.8 nM.
For CCCCC/C=C\C/C=C\C/C=C\C/C=C\CCCCOC(CO)CO, the Ki (Cannabinoid receptor 2 [1]) was 3000 nM.
In the case of CN(C1CCOCC1)C(C)(C)C(=O)Nc1cc(C(C)(C)CO)no1, the EC50 (Cannabinoid receptor 1 [5]) is reported as over 50000 nM.
In the case of O=C(NCC12CC3CC(CC(C3)C1)C2)c1nn(C2CCCCC2)c2c1CCCCCC2, the Activity (Cannabinoid receptor 1 [14]) is reported as 71%.
Compound CS(=O)(=O)N1CCc2c(cc(-c3cccc(Cl)c3)c(=O)n2CC2CCC2)C1 has an EC50 (Cannabinoid receptor 2 [15]) of under 100 nM and an EC50 (Cannabinoid receptor 1 [16]) of over 10000 nM.
For CC(C)(CO)c1cc(NC(=O)C(C)(C)S(=O)(=O)C2CCOCC2)on1, the EC50 (Cannabinoid receptor 1 [5]) was over 50000 nM.
CCCCCn1cc(C(=O)c2cccc3ccccc23)c2ccccc21 gave a Ki (Cannabinoid receptor 1 [9]) of 9.5 nM.
Work on Cc1ccc2c(c1)Cc1c(C(=O)NN3CCCCC3)nn(-c3ccc(Cl)cc3Cl)c1-2 yielded a Ki (Cannabinoid receptor 2 [8]) of 0.037 nM.
COc1cccc2c(C(=O)N[C@@H]3C(C)(C)[C@@H]4CC[C@@]3(C)C4)nn(CCN3CCOCC3)c12 gave a Ki (Cannabinoid receptor 2 [8]) of 2 nM and a Ki (Cannabinoid receptor 1 [9]) of 24 nM.
For CC(=O)N1CCC(Cn2c(C(C)(C)C)nc3cc(S(=O)(=O)C4CCCC4)ccc32)CC1, the EC50 (Cannabinoid receptor 2 [4]) was 3 nM.
Work on CCCCCCC(C)(C)c1cc(O)c2c(c1)OC(C)(C)[C@@H]1CC=C(CO)C[C@@H]21 yielded a Ki (Cannabinoid receptor 1 [17]) of 0.73 nM.
CC(C)(C)NC(=O)c1nn(-c2ccc(Cl)cc2)c2c1C1CCC2C1 (stereo not drawn) showed a Cmax [18] of 131 ng/mL, an AUC(0-inf) [19] of 1550 ng·h/mL and a half-life [20] of 7.3 h.
For COCCN1CC(C)(C)S/C1=N\C(=O)c1cc(Cl)ccc1OC, the Ratio Ki (Homo sapiens) was 10.
In the case of CCCCCCC(C)(C)c1cc(OC)c2c(c1)OC(C)(C)[C@@H]1CC=C(C)C[C@@H]21, the Ratio Ki (Homo sapiens) is reported as over 790.
O=S(=O)(c1ccc2c(c1)C1C3CCC(C3)C1C(c1ccccc1)N2)N1CCOCC1 (stereo not drawn) gave an EC50 (Cannabinoid receptor 1 [16]) of over 10000 nM.
In the case of CCCCCCC(C)(C)c1cc(O)c([C@H]2CC(=O)[C@H]3C[C@@H]2C3(C)C)c(OC(=O)/C=C/C(=O)O)c1 [PRS-211375], the Ki (Cannabinoid receptor 1 [17]) is reported as 334 nM, the Ki (Cannabinoid receptor 2 [1]) is reported as 9 nM and the Ratio Ki (Homo sapiens) is reported as 37.
COc1cccc2c(C(=O)c3ccc(Br)c4ccccc34)c(C)n(CCN3CCOCC3)c12 gave a Ki (Cannabinoid receptor 1 [9]) of over 1000 nM.
With CC(NC(=O)c1nc(N2CCOCC2)n2ccccc12)C(C)(C)C (stereo not drawn) the EC50 (Cannabinoid receptor 2 [4]) was 5.4 nM, the Emax (Cannabinoid receptor 2 [21]) was 99.5% and the EC50 (Cannabinoid receptor 1 [5]) was over 17000 nM. The Ratio Ki (Homo sapiens) was over 3100.
For COc1ccc(-c2nnc(NC(=O)C(C)(C)S(=O)(=O)C3CCOCC3)[nH]2)cc1, the EC50 (Cannabinoid receptor 1 [5]) was over 20000 nM.
